Measured values as given in ChEMBL document CHEMBL3352476, “Antimicrobial Constituents of the Mature Carpels of Manglietiastrum sinicum” (J Nat Prod, 2014).
Converted amounts (≈) assume the structure as drawn. Counter-ions that a name gives are not always drawn. The source made the active and inactive calls. The rule behind the calls is not given here.

Tests used:
Platelet [1] = assay: Inhibition of ADP-induced platelet aggregation in rabbit platelet rich plasma at 200 ug/ml preincubated for 10 mins before addition of inducer by aggregometry; assay type: functional; details: Oryctolagus cuniculus
Staphylococcus aureus [2] = assay: Antimicrobial activity against methicillin-resistant Staphylococcus aureus 331 by 2-fold dilution assay; assay type: functional
Staphylococcus aureus [3] = assay: Antimicrobial activity against Staphylococcus aureus by 2-fold dilution assay; assay type: functional
Platelet [4] = assay: Inhibition of PAF-induced platelet aggregation in rabbit platelet rich plasma at 200 ug/ml preincubated for 10 mins before addition of inducer by aggregometry; assay type: functional; details: Oryctolagus cuniculus
Staphylococcus aureus [5] = assay: Antimicrobial activity against methicillin-resistant Staphylococcus aureus 98 by 2-fold dilution assay; assay type: functional
MCF7 = assay: Cytotoxicity against human MCF7 cells by MTT assay; assay type: functional, cell-based
Staphylococcus aureus [6] = assay: Antimicrobial activity against methicillin-resistant Staphylococcus aureus 82 by 2-fold dilution assay; assay type: functional
[7] = Cytotoxicity against human SSMC-7721 cells by MTT assay; assay type: functional, cell-based
Platelet [8] = assay: Inhibition of arachidonic acid-induced platelet aggregation in rabbit platelet rich plasma at 200 ug/ml preincubated for 10 mins before addition of inducer by aggregometry; assay type: functional; details: Oryctolagus cuniculus
SW480 = assay: Cytotoxicity against human SW480 cells by MTT assay; assay type: functional, cell-based
[9] = Cytotoxicity against human HL60 cells by MTT assay; assay type: functional, cell-based; details: HL-60
A549 = assay: Cytotoxicity against human A549 cells by MTT assay; assay type: functional, cell-based
Staphylococcus aureus [10] = assay: Antimicrobial activity against methicillin-resistant Staphylococcus aureus 92 by 2-fold dilution assay; assay type: functional
Staphylococcus aureus [11] = assay: Antimicrobial activity against Staphylococcus aureus by agar plate punch assay; assay type: functional

SMILES | inhibition (Platelet [1]) | MIC (Staphylococcus aureus [2]) | MIC (Staphylococcus aureus [3]) | inhibition (Platelet [4]) | MIC (Staphylococcus aureus [5]) | IC50 (MCF7) | MIC (Staphylococcus aureus [6]) | IC50 [7] | inhibition (Platelet [8]) | IC50 (SW480) | IC50 [9] | IC50 (A549) | MIC (Staphylococcus aureus [10]) | diameter of the inhibition zone (DIZ) (Staphylococcus aureus [11])
COc1cc([C@H]2O[C@@H](c3ccc4c(c3)OCO4)[C@H](C)[C@@H]2C)cc(O)c1OC | inactive | 130 µM (≈ 48.4 µg/mL) | 67 µM (≈ 25 µg/mL) | inactive | 34 µM (≈ 12.7 µg/mL) | 14 µM | 67 µM (≈ 25 µg/mL) | > 40 µM | inactive | 19.1 µM | 39.8 µM | 27.4 µM | 67 µM (≈ 25 µg/mL) | –
COc1cc(C(=O)O[C@@H](c2cc(O)c(OC)c(OC)c2)[C@H](C)C(C)=O)cc(O)c1OC | inactive | – | – | inactive | – | > 40 µM | – | > 40 µM | inactive | > 40 µM | > 40 µM | > 40 µM | – | <10 mm
COc1cc([C@@H]2O[C@H](c3ccc4c(c3)OCO4)[C@H](C)[C@H]2C)cc(O)c1OC | inactive | 34 µM (≈ 12.7 µg/mL) | 67 µM (≈ 25 µg/mL) | inactive | 67 µM (≈ 25 µg/mL) | > 40 µM | 67 µM (≈ 25 µg/mL) | > 40 µM | inactive | > 40 µM | > 40 µM | > 40 µM | 67 µM (≈ 25 µg/mL) | –
COC1=CC2(C=C(OC)C1=O)C[C@@H](C)[C@H](C)Cc1cc3c(c(OC)c12)OCO3 | inactive | 32 µM (≈ 12.4 µg/mL) | 130 µM (≈ 50.2 µg/mL) | inactive | 16 µM (≈ 6.18 µg/mL) | > 40 µM | 65 µM (≈ 25.1 µg/mL) | > 40 µM | inactive | > 40 µM | > 40 µM | > 40 µM | 65 µM (≈ 25.1 µg/mL) | –
COc1cc(C(=O)O[C@@H](c2cc(OC)c(OC)c(OC)c2)[C@H](C)C(C)=O)ccc1O | inactive | – | – | inactive | – | > 40 µM | – | > 40 µM | inactive | > 40 µM | > 40 µM | > 40 µM | – | <10 mm
COc1cc2c(cc1O)[C@@H]1O[C@H](c3cc4c(c(OC)c3-2)OCO4)[C@H](C)[C@@H]1C | inactive | 140 µM (≈ 51.9 µg/mL) | 68 µM (≈ 25.2 µg/mL) | inactive | 34 µM (≈ 12.6 µg/mL) | > 40 µM | 140 µM (≈ 51.9 µg/mL) | 38.2 µM | inactive | > 40 µM | 17 µM | > 40 µM | 68 µM (≈ 25.2 µg/mL) | –
CN[C@H](CC(C)C)C(=O)N[C@H]1C(=O)N[C@@H](CC(N)=O)C(=O)N[C@H]2C(=O)N[C@H]3C(=O)N[C@H](C(=O)N[C@H](C(=O)O)c4cc(O)cc(O)c4-c4cc3ccc4O)[C@H](O)c3ccc(c(Cl)c3)Oc3cc2cc(c3O[C@@H]2O[C@H](CO)[C@@H](O)[C@H](O)[C@H]2O[C@H]2C[C@](C)(N)[C@H](O)[C@H](C)O2)Oc2ccc(cc2Cl)[C@H]1O [VANCOMYCIN HYDROCHLORIDE] | – | 0.54 µM | 1.1 µM | – | 0.54 µM | – | 0.54 µM | – | – | – | – | – | 0.54 µM | –
COc1cc([C@@H]2O[C@H](c3cc(O)c(OC)c(OC)c3)[C@@H](C)[C@@H]2C)ccc1O | inactive | 130 µM (≈ 48.7 µg/mL) | 130 µM (≈ 48.7 µg/mL) | inactive | 130 µM (≈ 48.7 µg/mL) | > 40 µM | 67 µM (≈ 25.1 µg/mL) | > 40 µM | inactive | > 40 µM | > 40 µM | > 40 µM | 130 µM (≈ 48.7 µg/mL) | –
